# Legend:
# wheat, winter = test: Test C preemergence; type: in vivo, Triticum aestivum; conditions: Triticum aestivum, pre-emergence
# Procedure, shortened: (§1)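 Whole-plant greenhouse test with surfactant-containing solvent formulation, applied preemergence to sown loam–sand pots or postemergence to 2–18 cm plants. Scored by eye 13 to 15 days on, 0–100 scale.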
# kochia [1] = test: Test A preemergence; type: in vivo, Kochia scoparia; conditions: 0 to 100 scale where 0 is no effect and 100 is complete control
# Procedure, shortened: (§2)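 Pre- and postemergence greenhouse screen. Soil: loam + sand. Spray carrier: solvent mixture, non-phytotoxic, with surfactant. Post timing at 1–2 leaves, height 2–10 cm. Readout: visual injury on a 0–100 scale roughly 10 days after application, untreated plants as reference.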
# barnyardgrass = test: Test C preemergence; type: in vivo, Echinochloa crus-galli; conditions: Echinochloa crus-galli, pre-emergence
# Procedure, shortened: as §1
# oilseed rape = test: Test C preemergence; type: in vivo, Brassica napus; conditions: Brassica napus, pre-emergence
# Procedure, shortened: as §1
# ragweed [2] = test: Test C preemergence; type: in vivo, Ambrosia elatior; conditions: Ambrosia artemisiifolia, pre-emergence
# Procedure, shortened: as §1
# blackgrass = test: Test C preemergence; type: in vivo, Alopecurus myosuroides; conditions: Alopecurus myosuroides, pre-emergence
# Procedure, shortened: as §1
# velvetleaf = test: Test C preemergence; type: in vivo, Abutilon theophrasti; conditions: Abutilon theophrasti, pre-emergence
# Procedure, shortened: as §1
# Italian ryegrass [3] = test: Test A preemergence; type: in vivo, Lolium multiflorum; conditions: 0 to 100 scale where 0 is no effect and 100 is complete control
# Procedure, shortened: as §2
# ragweed [4] = test: Test A postemergence; type: in vivo, Ambrosia elatior; conditions: 0 to 100 scale where 0 is no effect and 100 is complete control
# Procedure, shortened: as §2
# galium = test: Test A postemergence; type: in vivo, Galium aparine; conditions: 0 to 100 scale where 0 is no effect and 100 is complete control
# Procedure, shortened: as §2
# johnsongrass = test: Test C preemergence; type: in vivo, Sorghum halepense; conditions: Sorghum halepense, pre-emergence
# Procedure, shortened: as §1
# waterhemp = test: Test C preemergence; type: in vivo, Amaranthus rudis; conditions: Amaranthus tuberculatus, pre-emergence
# Procedure, shortened: as §1
# pigweed = test: Test C preemergence; type: in vivo, Amaranthus retroflexus; conditions: Amaranthus retroflexus, pre-emergence
# Procedure, shortened: as §1
# large (Lg) crabgrass = test: Test C preemergence; type: in vivo, Digitaria sanguinalis; conditions: Digitaria sanguinalis, pre-emergence
# Procedure, shortened: as §1
# kochia [5] = test: Test A postemergence; type: in vivo, Kochia scoparia; conditions: 0 to 100 scale where 0 is no effect and 100 is complete control
# Procedure, shortened: as §2
# ragweed [6] = test: Test A preemergence; type: in vivo, Ambrosia elatior; conditions: 0 to 100 scale where 0 is no effect and 100 is complete control
# Procedure, shortened: as §2
# Italian ryegrass [7] = test: Test C preemergence; type: in vivo, Lolium multiflorum; conditions: Lolium multiflorum, pre-emergence
# Procedure, shortened: as §1
# giant foxtail = test: Test C preemergence; type: in vivo, Setaria faberii; conditions: Setaria faberi, pre-emergence
# Procedure, shortened: as §1
# soybean = test: Test C preemergence; type: in vivo, Glycine max; conditions: Glycine max, pre-emergence
# Procedure, shortened: as §1
smiles,measurement,setting,value
"N#Cc1cccc(Oc2ncc(Cl)cn2)c1-n1cc(SC(F)(F)F)cn1 [Compound 134, 3-[(5-chloro-2-pyrimidinyl)oxy]-2-[4-(trifluoromethylthio)-1-pyrazolyl]benzonitrile]",plant injury at 16 g/ha,"wheat, winter; 16 g ai/ha, preemergence, scale 0 to 100 (0 no effect, 100 complete control), read-out: Wheat plant response rating",0%
same,plant injury at 62 g/ha,"wheat, winter; 62 g ai/ha, preemergence, scale 0 (no effect) to 100 (complete control), read-out: Wheat plant response rating",0%
same,plant injury at 125 g/ha,"wheat, winter; 125 g ai/ha, preemergence, scale 0 (no effect) to 100 (complete control), read-out: Wheat plant response rating",15%
same,plant injury at 31 g/ha,"wheat, winter; Preemergence, 31 g ai/ha, scale 0 to 100, 0 no effect, 100 complete control, read-out: Plant response rating, Wheat",0%
same,"Plant response rating, Kochia",kochia [1]; 125 g ai/ha,100
same,Kochia plant response rating,kochia [1]; 500 g ai/ha,100
same,pest or weed control at 16 g/ha,"barnyardgrass; 16 g ai/ha, preemergence, scale 0 to 100 (0 no effect, 100 complete control), read-out: Barnyardgrass plant response rating",0%
same,pest or weed control at 62 g/ha,"barnyardgrass; 62 g ai/ha, preemergence, scale 0 (no effect) to 100 (complete control), read-out: Barnyardgrass plant response rating",60%
same,pest or weed control at 125 g/ha,"barnyardgrass; 125 g ai/ha, preemergence, scale 0 (no effect) to 100 (complete control), read-out: Barnyardgrass plant response rating",85%
same,pest or weed control at 31 g/ha,"barnyardgrass; Preemergence, 31 g ai/ha, scale 0 to 100, 0 no effect, 100 complete control, read-out: Plant response rating, Barnyardgrass",15%
same,plant injury at 16 g/ha,"oilseed rape; 16 g ai/ha, preemergence, scale 0 to 100 (0 no effect, 100 complete control), read-out: Oilseed Rape plant response rating",20%
same,plant injury at 62 g/ha,"oilseed rape; 62 g ai/ha, preemergence, scale 0 (no effect) to 100 (complete control), read-out: Oilseed Rape plant response rating",100%
same,plant injury at 125 g/ha,"oilseed rape; 125 g ai/ha, preemergence, scale 0 (no effect) to 100 (complete control), read-out: Oilseed Rape plant response rating",100%
same,plant injury at 31 g/ha,"oilseed rape; Preemergence, 31 g ai/ha, scale 0 to 100, 0 no effect, 100 complete control, read-out: Plant response rating, Oilseed Rape",45%
same,pest or weed control at 16 g/ha,"ragweed [2]; 16 g ai/ha, preemergence, scale 0 to 100 (0 no effect, 100 complete control), read-out: Ragweed plant response rating",0%
same,pest or weed control at 62 g/ha,"ragweed [2]; 62 g ai/ha, preemergence, scale 0 (no effect) to 100 (complete control), read-out: Ragweed plant response rating",55%
same,pest or weed control at 125 g/ha,"ragweed [2]; 125 g ai/ha, preemergence, scale 0 (no effect) to 100 (complete control), read-out: Ragweed plant response rating",50%
same,pest or weed control at 31 g/ha,"ragweed [2]; Preemergence, 31 g ai/ha, scale 0 to 100, 0 no effect, 100 complete control, read-out: Plant response rating, Ragweed",25%
same,pest or weed control at 16 g/ha,"blackgrass; 16 g ai/ha, preemergence, scale 0 to 100 (0 no effect, 100 complete control), read-out: Blackgrass plant response rating",0%
same,pest or weed control at 62 g/ha,"blackgrass; 62 g ai/ha, preemergence, scale 0 (no effect) to 100 (complete control), read-out: Blackgrass plant response rating",85%
same,pest or weed control at 125 g/ha,"blackgrass; 125 g ai/ha, preemergence, scale 0 (no effect) to 100 (complete control), read-out: Blackgrass plant response rating",98%
same,pest or weed control at 31 g/ha,"blackgrass; Preemergence, 31 g ai/ha, scale 0 to 100, 0 no effect, 100 complete control, read-out: Plant response rating, Blackgrass",45%
same,pest or weed control at 16 g/ha,"velvetleaf; 16 g ai/ha, preemergence, scale 0 to 100 (0 no effect, 100 complete control), read-out: Velvetleaf plant response rating",30%
same,pest or weed control at 62 g/ha,"velvetleaf; 62 g ai/ha, preemergence, scale 0 (no effect) to 100 (complete control), read-out: Velvetleaf plant response rating",85%
same,pest or weed control at 125 g/ha,"velvetleaf; 125 g ai/ha, preemergence, scale 0 (no effect) to 100 (complete control), read-out: Velvetleaf plant response rating",100%
same,pest or weed control at 31 g/ha,"velvetleaf; Preemergence, 31 g ai/ha, scale 0 to 100, 0 no effect, 100 complete control, read-out: Plant response rating, Velvetleaf",35%
same,"Plant response rating, Ryegrass, Italian",Italian ryegrass [3]; 125 g ai/ha,20
same,"Ryegrass, Italian plant response rating",Italian ryegrass [3]; 500 g ai/ha,40
same,Ragweed plant response rating,ragweed [4]; 125 g ai/ha,50
same,"Plant response rating, Ragweed",ragweed [4]; 500 g ai/ha,60
same,Galium plant response rating,galium; 125 g ai/ha,100
same,"Plant response rating, Galium",galium; 500 g ai/ha,100
same,pest or weed control at 16 g/ha,"johnsongrass; 16 g ai/ha, preemergence, scale 0 to 100 (0 no effect, 100 complete control), read-out: Johnsongrass plant response rating",20%
same,pest or weed control at 62 g/ha,"johnsongrass; 62 g ai/ha, preemergence, scale 0 (no effect) to 100 (complete control), read-out: Johnsongrass plant response rating",45%
same,pest or weed control at 125 g/ha,"johnsongrass; 125 g ai/ha, preemergence, scale 0 (no effect) to 100 (complete control), read-out: Johnsongrass plant response rating",85%
same,pest or weed control at 31 g/ha,"johnsongrass; Preemergence, 31 g ai/ha, scale 0 to 100, 0 no effect, 100 complete control, read-out: Plant response rating, Johnsongrass",25%
same,pest or weed control at 16 g/ha,"waterhemp; 16 g ai/ha, preemergence, scale 0 to 100 (0 no effect, 100 complete control), read-out: Waterhemp plant response rating",85%
same,pest or weed control at 62 g/ha,"waterhemp; 62 g ai/ha, preemergence, scale 0 (no effect) to 100 (complete control), read-out: Waterhemp plant response rating",100%
same,pest or weed control at 125 g/ha,"waterhemp; 125 g ai/ha, preemergence, scale 0 (no effect) to 100 (complete control), read-out: Waterhemp plant response rating",100%
same,pest or weed control at 31 g/ha,"waterhemp; Preemergence, 31 g ai/ha, scale 0 to 100, 0 no effect, 100 complete control, read-out: Plant response rating, Waterhemp",100%
same,pest or weed control at 16 g/ha,"pigweed; 16 g ai/ha, preemergence, scale 0 to 100 (0 no effect, 100 complete control), read-out: Pigweed plant response rating",100%
same,pest or weed control at 62 g/ha,"pigweed; 62 g ai/ha, preemergence, scale 0 (no effect) to 100 (complete control), read-out: Pigweed plant response rating",100%
same,pest or weed control at 125 g/ha,"pigweed; 125 g ai/ha, preemergence, scale 0 (no effect) to 100 (complete control), read-out: Pigweed plant response rating",100%
same,pest or weed control at 31 g/ha,"pigweed; Preemergence, 31 g ai/ha, scale 0 to 100, 0 no effect, 100 complete control, read-out: Plant response rating, Pigweed",100%
same,pest or weed control at 16 g/ha,"large (Lg) crabgrass; 16 g ai/ha, preemergence, scale 0 to 100 (0 no effect, 100 complete control), read-out: Crabgrass, Large plant response rating",60%
same,pest or weed control at 62 g/ha,"large (Lg) crabgrass; 62 g ai/ha, preemergence, scale 0 (no effect) to 100 (complete control), read-out: Crabgrass, Large plant response rating",98%
same,pest or weed control at 125 g/ha,"large (Lg) crabgrass; 125 g ai/ha, preemergence, scale 0 (no effect) to 100 (complete control), read-out: Crabgrass, Large plant response rating",100%
same,pest or weed control at 31 g/ha,"large (Lg) crabgrass; Preemergence, 31 g ai/ha, scale 0 to 100, 0 no effect, 100 complete control, read-out: Plant response rating, Crabgrass, Large",98%
same,Kochia plant response rating,kochia [5]; 125 g ai/ha,90
same,"Plant response rating, Kochia",kochia [5]; 500 g ai/ha,100
same,"Plant response rating, Ragweed",ragweed [6]; 125 g ai/ha,60
same,Ragweed plant response rating,ragweed [6]; 500 g ai/ha,80
same,pest or weed control at 16 g/ha,"Italian ryegrass [7]; 16 g ai/ha, preemergence, scale 0 to 100 (0 no effect, 100 complete control), read-out: Ryegrass, Italian plant response rating",0%
same,pest or weed control at 62 g/ha,"Italian ryegrass [7]; 62 g ai/ha, preemergence, scale 0 (no effect) to 100 (complete control), read-out: Ryegrass, Italian plant response rating",15%
same,pest or weed control at 125 g/ha,"Italian ryegrass [7]; 125 g ai/ha, preemergence, scale 0 (no effect) to 100 (complete control), read-out: Ryegrass, Italian plant response rating",70%
same,pest or weed control at 31 g/ha,"Italian ryegrass [7]; Preemergence, 31 g ai/ha, scale 0 to 100, 0 no effect, 100 complete control, read-out: Plant response rating, Ryegrass, Italian",5%
same,pest or weed control at 16 g/ha,"giant foxtail; 16 g ai/ha, preemergence, scale 0 to 100 (0 no effect, 100 complete control), read-out: Foxtail, Giant plant response rating",10%
same,pest or weed control at 62 g/ha,"giant foxtail; 62 g ai/ha, preemergence, scale 0 (no effect) to 100 (complete control), read-out: Foxtail, Giant plant response rating",100%
same,pest or weed control at 125 g/ha,"giant foxtail; 125 g ai/ha, preemergence, scale 0 (no effect) to 100 (complete control), read-out: Foxtail, Giant plant response rating",100%
same,pest or weed control at 31 g/ha,"giant foxtail; Preemergence, 31 g ai/ha, scale 0 to 100, 0 no effect, 100 complete control, read-out: Plant response rating, Foxtail, Giant",65%
same,plant injury at 16 g/ha,"soybean; 16 g ai/ha, preemergence, scale 0 to 100 (0 no effect, 100 complete control), read-out: Soybean plant response rating",0%
same,plant injury at 62 g/ha,"soybean; 62 g ai/ha, preemergence, scale 0 (no effect) to 100 (complete control), read-out: Soybean plant response rating",20%
same,plant injury at 125 g/ha,"soybean; 125 g ai/ha, preemergence, scale 0 (no effect) to 100 (complete control), read-out: Soybean plant response rating",55%
same,plant injury at 31 g/ha,"soybean; Preemergence, 31 g ai/ha, scale 0 to 100, 0 no effect, 100 complete control, read-out: Plant response rating, Soybean",15%

# Reference: patent publication US9695155B2, “Herbicidal substituted pyrimidinyloxy benzene compounds” (E. I. DU PONT DE NEMOURS AND COMPANY, priority 2013, dated 2017)
